Results: US20230051589A1, “COMPOUNDS AND COMPOSITIONS FOR TREATING CONDITIONS ASSOCIATED WITH NLRP ACTIVITY” (Novartis AG, priority 2018, published 2023)

These molecules were tested on IL-1β production in PMA-differentiated THP-1 cells (assay: IL-1β production in PMA-differentiated THP-1 cells stimulated with gramicidin (hTHP-1 assay, 2% fetal bovine serum; Procedures 1-3)). Settings: Homo sapiens, THP-1, Table B1; hTHP-1 assay containing 2% fetal bovine serum, gramicidin stimulation, IL-1β readout; read-out: hTHP-1 IC50 (average).
Format: cell-based, human
Summary of the method: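 IL-1β released into supernatants was read by HTRF after 2 h gramicidin (5 μM) challenge. Before challenge, compounds (3-fold dilutions, top 100 μM, 0.37% DMSO) were given 1 h on THP-1 cells differentiated with PMA (20 ng/ml, 16-18 h) and held in 2% FBS medium.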

Question: For `COC(C)(C)c1ncc(S(N)(=O)=NC(=O)Nc2c3c(cc4c2CCC4)CCC3)s1` (centres unmarked) [Example 295, N′-((1,2,3,5,6,7-hexahydro-s-indacen-4-yl)carbamoyl)-2-(2-methoxypropan-2-yl)-thiazole-5-sulfonimidamide], which IC50 is on record?
Answer: Its IC50 is 40 to 200 nM.

Same assay, conditions: Homo sapiens, THP-1, Table B3; hTHP-1 assay containing 2% fetal bovine serum, gramicidin stimulation, IL-1β readout; read-out: hTHP-1 IC50

Question: With `NS(=O)(=NC(=O)Nc1c2c(cc3c1CCC3)CCC2)c1ccc([C@H]2CCCN2)s1` (stereo partly drawn) [Example 731, N′-((1,2,3,5,6,7-hexahydro-s-indacen-4-yl)carbamoyl)-5-((R)-pyrrolidin-2-yl)thiophene-2-sulfonimidamide] as the molecule, how does the IC50 read?
Answer: Its IC50 is 200 to 1000 nM.

Question: `CC(C)(CO)c1ncc(S(N)(=O)=NC(=O)Nc2c3c(c(C#N)c4c2CCC4)CCC3)s1` (centres unmarked) [Example 772, N′-((8-cyano-1,2,3,5,6,7-hexahydro-s-indacen-4-yl)carbamoyl)-2-(1-hydroxy-2-methylpropan-2-yl)thiazole-5-sulfonimidamide] was tested. Which IC50 did it give?
Answer: Its IC50 is 40 to 200 nM.

Question: For `NS(=O)(=NC(=O)Nc1c2c(cc3c1CCC3)CCC2)c1cnc(C(O)(COCCO)COCCO)s1` (centres unmarked) [Example 751, N′-((1,2,3,5,6,7-hexahydro-s-indacen-4-yl)carbamoyl)-2-(2-hydroxy-1,3-bis(2-hydroxyethoxy)propan-2-yl)thiazole-5-sulfonimidamide], which IC50 is on record?
Answer: The IC50 was 1000 to 5000 nM.

Same assay, conditions: Homo sapiens, THP-1, hTHP-1 assay containing 2% fetal bovine serum, Table B2, class symbols; read-out: IC50

Question: For `CC(C)(O)c1ncc(S(N)(=O)=NC(=O)Nc2cc3c(c4c2CCC4=O)CCC3)s1` (single isomer, unassigned) [Example 565, (R) or (S)-2-(2-hydroxypropan-2-yl)-N′-((1-oxo-1,2,3,6,7,8-hexahydro-as-indacen-4-yl)carbamoyl) thiazole-5-sulfonimidamide], which IC50 is on record?
Answer: The IC50 was 5000 to 30000 nM.

Question: `CN(Cc1ccc(S(N)(=O)=NC(=O)Nc2c3c(cc4c2CCC4)CCC3)cc1)CC(F)(F)F` (centres unmarked) [Example 487, N′-((1,2,3,5,6,7-hexahydro-s-indacen-4-yl)carbamoyl)-4-((methyl(2,2,2-trifluoroethyl)amino)methyl) benzenesulfonimidamide] was tested. Which IC50 did it give?
Answer: Its IC50 is 1000 to 5000 nM.

Question: For `CC(C)(O)c1nc(S(N)(=O)=NC(=O)Nc2c3c(cc4c2CCC4)CCC3)cs1` (centres unmarked) [Example 440, N-((1,2,3,5,6,7-hexahydro-s-indacen-4-yl)carbamoyl)-2-(2-hydroxypropan-2-yl)thiazole-4-sulfonimidamide], which IC50 is on record?
Answer: Its IC50 is 200 to 1000 nM.

Question: For `CC(C)(O)c1ccc(S(N)(=O)=NC(=O)Nc2c3c(c(C#N)c4c2CCC4)CCC3)cn1` (centres unmarked) [Example 470, N′-((8-cyano-1,2,3,5,6,7-hexahydro-s-indacen-4-yl)carbamoyl)-6-(2-hydroxypropan-2-yl)pyridine-3-sulfonimidamide], which IC50 is on record?
Answer: The IC50 was 200 to 1000 nM.

Question: For `CN(C)Cc1ccc([S@@](N)(=O)=NC(=O)Nc2c3c(cc4c2CCC4)CCC3)s1` [Compound 889b], which IC50 is on record?
Answer: The IC50 was 200 to 1000 nM.

Question: With `CNCc1cc(F)c(S(N)(=O)=NC(=O)Nc2c3c(cc4c2CCC4)CCC3)s1` (centres unmarked) [Example 481, 3-Fluoro-N′-((1,2,3,5,6,7-hexahydro-s-indacen-4-yl)carbamoyl)-5-((methylamino)methyl)thiophene-2-sulfonimidamide] as the molecule, how does the IC50 read?
Answer: Its IC50 is 40 to 200 nM.

Question: `CCn1ccc([S@](N)(=O)=NC(=O)Nc2c3c(cc4c2CCC4)CCC3)n1` [Compound 904a] was tested. Which IC50 did it give?
Answer: The IC50 was 40 to 200 nM.

Question: Which IC50 does the source give for `C[C@H](N[S@@](=O)(=NC(=O)Nc1c2c(cc3c1CCC3)CCC2)c1cnc(C(C)(C)O)s1)c1ccccc1` [Compound 887a] here?
Answer: The IC50 was 5000 to 30000 nM.

Same assay, conditions: Homo sapiens, THP-1, hTHP-1 assay containing 2% fetal bovine serum, Table B2, given as bound; read-out: IC50

Question: Which IC50 does the source give for `CC(C)(O)c1cnc(S(N)(=O)=NC(=O)Nc2c3c(cc4c2CCC4O)CCC3)s1` (single isomer, unassigned) [Example 655, (S,R) or (S,S)-N′-((1-hydroxy-1,2,3,5,6,7-hexahydro-5-indacen-4-yl)carbamoyl)-5-(2-hydroxypropan-2-yl)thiazole-2-sulfonimidamide] here?
Answer: Its IC50 is greater than 30000 nM.

Same assay, conditions: Table B1; hTHP-1 assay containing 2% fetal bovine serum, gramicidin stimulation, IL-1β readout; read-out: hTHP-1 IC50 (average)

Question: `CNS(=O)(=NC(=O)Nc1c2c(cc3c1CCC3)CCC2)c1cnc(C(C)(C)O)s1` (centres unmarked) [Example 247, N′-((1,2,3,5,6,7-hexahydro-s-indacen-4-yl)carbamoyl)-2-(2-hydroxypropan-2-yl)-N-methylthiazole-5-sulfon-imidamide] was tested. Which IC50 did it give?
Answer: The IC50 was 5000 to 30000 nM.

Question: Which IC50 does the source give for `CN(C)Cc1ccc(S(N)(=O)=NC(=O)Nc2c3c(cc4c2CCC4)CCC3)nc1` (single isomer, unassigned) [Example 413, (R) or (S)-5-((dimethyl-amino)methyl)-N′-((1,2,3,5,6,7-hexahydro-s-indacen-4-yl)carbamoyl)-pyridine-2-sulfonimid-amide] here?
Answer: The IC50 was 200 to 1000 nM.

Question: For `[2H]C1([2H])CCc2cc3c(c(NC(=O)N=S(N)(=O)c4cnc(C(C)(C)O)s4)c21)C([2H])([2H])CC3` (single isomer, unassigned) [Example 421, (R) or (S)-N′-((1,2,3,5,6,7-hexahydro-s-indacen-4-yl-3,3,5,5-d4)carbamoyl)-2-(2-hydroxypropan-2-yl)-thiazole-5-sulfonimidamide], which IC50 is on record?
Answer: Its IC50 is 8 to 40 nM.

Question: With `CC(C)c1cc(C#N)c(F)c(C(C)C)c1NC(=O)N=S(N)(=O)c1cnc(C(C)(C)O)s1` (single isomer, unassigned) [Example 91] as the molecule, how does the IC50 read?
Answer: Its IC50 is 40 to 200 nM.

Same assay, conditions: Table B3; hTHP-1 assay containing 2% fetal bovine serum, gramicidin stimulation, IL-1β readout; read-out: hTHP-1 IC50

Question: With `CC(C)(O)c1nc(CO)c(S(N)(=O)=NC(=O)Nc2c3c(cc4c2C(=O)CC4)CCC3)s1` (single isomer, unassigned) [Example 807, (S) or (R)-4-(hydroxymethyl)-2-(2-hydroxypropan-2-yl)-N′-((3-oxo-1,2,3,5,6,7-hexahydro-s-indacen-4-yl)carbamoyl)thiazole-5-sulfonimidamide] as the molecule, how does the IC50 read?
Answer: The IC50 was 5000 to 30000 nM.

Question: Which IC50 does the source give for `NS(=O)(=NC(=O)Nc1c2c(cc3c1CCC3)CCC2)c1sc(CNC2CCC2)cc1F` (single isomer, unassigned) [Example 795, (R) or (S)-5-((cyclobutylamino)methyl)-3-fluoro-N′-((1,2,3,5,6,7-hexahydro-s-indacen-4-yl)carbamoyl)thiophene-2-sulfonimidamide] here?
Answer: Its IC50 is 200 to 1000 nM.

Question: How did the IC50 turn out when `CN1CCCC(c2ccc(S(N)(=O)=NC(=O)Nc3c4c(cc5c3CC5)CCC4)c(F)c2)C1` (single isomer, unassigned) [Example 861, (S, S) or (R, S)-2-fluoro-4-(1-methylpiperidin-3-yl)-N′-((2,4,5,6-tetrahydro-1H-cyclobuta[f]inden-3-yl)carbamoyl)benzenesulfonimidamide] was run?
Answer: The IC50 was greater than 30000 nM.

Same assay, conditions: hTHP-1 assay containing 2% fetal bovine serum, Table B2, class symbols; read-out: IC50

Question: With “N-(amino((R)-6-methoxy-6,7- dihydro-5H-pyrazolo[5,1- b][1,3]oxazin-3-yl)(oxo)-9,6- sulfaneylidene)-1,2,3,5,6,7- hexahydro-s-indacene-4-carboxamide [Example 472]” as the molecule, how does the IC50 read?
Answer: Its IC50 is 40 to 200 nM.

Question: With `CN1CCc2cc(S(N)(=O)=NC(=O)Nc3c4c(cc5c3CCC5)CCC4)sc2C1` (single isomer, unassigned) [Example 558, (R) or (S)-N′-((1,2,3,5,6,7-hexahydro-5-indacen-4-yl)carbamoyl)-6-methyl-4,5,6,7-tetrahydrothieno [2,3-c]pyridine-2-sulfonimidamide] as the molecule, how does the IC50 read?
Answer: Its IC50 is 40 to 200 nM.

Question: `CC(C)(O)c1cnc(S(N)(=O)=NC(=O)Nc2c3c(cc4c2C(=O)CC4)CCC3)s1` (single isomer, unassigned) [Example 572, (R) or (S)-5-(2-hydroxypiopan-2-yl)-N′-((3-oxo-1,2,3,5,6,7-hexahydro-s-indacen-4-yl)carbamoyl)thiazole-2-sulfonimidamide] was tested. Which IC50 did it give?
Answer: The IC50 was 200 to 1000 nM.

Question: `CC(C)(O)c1csc(S(N)(=O)=NC(=O)Nc2c3c(cc4c2CC4)CCC3)c1` (single isomer, unassigned) [Example 561, (S) or (R)-4-(2-hydroxypropan-2-N′-((2,4,5,6-tetrahydro-1H-cyclobuta[f]inden-3 - y])carbamoyl) thiophene-2-sulfonimidamide] was tested. Which IC50 did it give?
Answer: Its IC50 is 200 to 1000 nM.

Question: How did the IC50 turn out when `CC(C)(O)c1nc(CO)c(S(N)(=O)=NC(=O)Nc2c3c(cc4c2CCC4)CCC3)s1` (single isomer, unassigned) [Example 542, (S) or (R)-N′-((1,2,3,5,6,7-hexahydro-s-indacen-4-yl)carbamoyl)-4-(hydroxymethyl)-2-(2-hydroxypropan-2-yl)thiazole-5-sulfonimidamide] was run?
Answer: Its IC50 is 1000 to 5000 nM.

Question: For `NS(=O)(=NC(=O)Nc1c2c(cc3c1CCC3)CCC2)c1cc2c(s1)COCC2` (single isomer, unassigned) [Example 693, (R) or (S)-N′-((1,2,3,5,6,7-hexahydro-s-indacen-4-yl)carbamoyl)-4,7-dihydro-5H-thieno[2,3-c]pyran-2-sulfonimidamide], which IC50 is on record?
Answer: Its IC50 is 200 to 1000 nM.

Question: Which IC50 does the source give for `CC(C)(O)c1ccc(S(N)(=O)=NC(=O)Nc2c3c(c(C#N)c4c2CCC4)CCC3)cn1` (single isomer, unassigned) [Example 544, (S) or (R)-N′-((8-cyano-1,2,3,5,6,7-hexahydro-s-indacen-4-yl)carbamoyl)-6-(2-hydroxypropan-2-yl)pyridine-3-sulfonimidamide] here?
Answer: Its IC50 is 5000 to 30000 nM.

Question: With `CC(C)(O)c1cc(F)c(S(N)(=O)=NC(=O)Nc2c3c(cc4c2C(=O)CC4)CCC3)s1` (single isomer, unassigned) [Example 539, (R) or (S)-3-fluoro-5-(2-hydroxypropan-2-yl)-N′-((3-oxo-1,2,3,5,6,7-hexahydro-s-indacen-4-yl)carbamoyl) thiophene-2-sulfonimidamide] as the molecule, how does the IC50 read?
Answer: Its IC50 is 40 to 200 nM.

Same assay, conditions: hTHP-1 assay containing 2% fetal bovine serum, Table B2, given as bound; read-out: IC50

Question: Which IC50 does the source give for `CN(Cc1ccc(S(N)(=O)=NC(=O)Nc2c3c(cc4c2CCC4)CCC3)cc1)CC(F)(F)F` (single isomer, unassigned) [Example 609, (S) or (R)-N′-((1,2,3,5,6,7-hexahydro-s-indacen-4-yl)carbamoyl)-4-((methyl(2,2,2-trifluoroethyl)amino)methyl) benzenesulfonimidamide] here?
Answer: Its IC50 is greater than 30000 nM.
